Experimental data published in patent US4217345A, “3-0-(β-D-Glucuronopyranosyl)-soyasapogenol B” (Otsuka Pharmaceutical Co., Ltd., priority 1978, dated 1980).
Several values for one entry are separate records, joined by “and”; a condition that tells them apart may be missing. Identical values can stand only once.

Experiments:
complement = test: Anticomplementary activity: inhibition of hemolysis of sensitized erythrocytes (EA); type: biochemical, guinea pig; conditions: for Anticomplementary Activity (50% hemolysis inhibitory activity value): guinea pig complement serum diluted 150 times, 60 minutes
Description: The anticomplementary activity of the test compounds above was measured and confirmed by the testing method described in Meneki Kagaku (Immuno-Chemistry), Yuichi Yamamura et al., Ed. Asakura Shoten, Tokyo, Japan (1973) pages 830-834. Specifically, a test tube was charged with 0.5 ml of an aqueous dispersion of each of the test compounds, 0.5 ml of sensitized erythrocytes (EA) containing 1×10^8 cells/ml, 1 ml of a 5-fold diluted solution of a Veronal buffer solution containing isotonic gelatin (This 5-fold diluted solution is termed GVB^++ for brevity), and 0.5 ml of complement serum (guinea pig complement) diluted 150 times with the GVB^++. The mixture was maintained for 60 minutes. Then, 5 ml of an ice-fold physiological saline solution was added thereto and the mixture was centrifuged.

Heymann-Type Nephritis = test: Therapeutic effects on Heymann-type nephritis: proteinuria level; type: in vivo, Male Wistar rats; conditions: for Proteinuria Level: individual rat, listed as Compound of Invention
Description: Male Wistar rats with a body weight of 180 to 200 g were used in the test. Rat kidney cortex was extracted, and homogenized with an equal quantity by volume of a physiological saline solution. The homogenate was centrifuged at 1,500 G for 1 hour. The supernatant liquid was purified in accordance with the method of T. S. Edgington et al., Journal of Experimental Medicine, 127, 555 (1968), and mixed with Freund's complete adjuvant 37 Ra (a product of Difco Company) in a volume ratio of 0.4:1. The resulting mixture was injected intraperitoneally into isologous rats in an amount of 0.5 ml per rat. And then the same amount of its mixture was administered every 2 weeks until the proteinuria level exceeded 100 mg/day. (This period was about 6 to 8 weeks.)
Each of the test compounds was intraperitoneally administered to the rats affected with Heymann-type nephritis (with a body weight of 300 to 350 g) once a day for 7 days, and then the amount of proteinuria (mg/day) was measured in the same manner as described above. Physiological saline solution was used as a control.

[1] = test system: Nephrotoxin-Type Nephritis; test: Therapeutic effect on nephrotoxin-type nephritis: proteinuria level; type: in vivo, male Wistar rats; conditions: for Proteinuria Level, Average: 3 mg/body i.p. for seven days; for Proteinuria Level: 3 mg/body i.p. once every 24 hours for seven days, individual rat, listed as Compound of Invention
Description: Rat nephrotoxin ("NT" for brevity) was obtained as described below.
Rat kidney cortex was homogenized with an equal quantity of physiological saline. The homogenized mixture was mixed with Freund's complete adjuvant (a product of Difco Company) in a volume ratio of 1:1. 2 ml of the resulting mixture was intramuscularly injected into a rabbit (body weight 3,100 g) to immunize the rabbit. A month and a half later, blood was taken from the heart of the rabbit and serum was obtained. The resulting serum was inactivated at 56° C. for 30 minutes, then salted out with a 40% saturated aqueous solution of ammonium sulfate, and fractionated. The γ-globulin (IgG) fraction was collected to obtain NT.
The therapeutic evaluation was carried out using male Wistar rats with a body weight of 150 to 160 g with three replications for each test compound. The test compound was intraperitoneally administered once every 24 hours for seven days. One hour after the administration of the test compound on the third day, the NT was applied. The NT was intravenously injected in an amount of 1 ml at a tail vein of each rat. Physiological saline solution was used as a control.
The proteinuria level (total amount excreted into the urine over a 24 hour period) was measured using turbidometry employing bovine serum albumin as a control by means of sulfosalicylic acid.

mice = test: Acute toxicity (LD50) in mice; type: in vivo; conditions: intraperitoneal administration
Description: (§1) The actute toxicity (LD50 mg/kg) of the test compounds was determined on mice by intraperitoneal administration in the case of Compound A and intravenous administration in the case of Compound B.

urokinase = conditions: cited from earlier work
thrombin = conditions: cited from earlier work
Kallikrein = conditions: cited from earlier work
plasmin = conditions: cited from earlier work
complements = conditions: cited from earlier work
[2] = Acute toxicity (LD50) in mice; type: in vivo; conditions: mouse, in vivo, intravenous administration
Description: as §1

[3] = test system: hereditary angioneurotic edema; conditions: known complement inhibitors; cited from earlier work

## CC1(C)C[C@@H](O)[C@]2(C)CC[C@]3(C)C(=CC[C@@H]4[C@@]5(C)CC[C@H](O[C@@H]6O[C@H](C(=O)O)[C@@H](O)[C@H](O)[C@H]6O)[C@@](C)(CO)[C@@H]5CC[C@]43C)[C@@H]2C1 [Compound A, 3-O-(β-D-glucuronopyranosyl)-soyasapogenol B]
complement
  anticomplementary activity (in words): potent anticomplementary activity
  Anticomplementary Activity (50% hemolysis inhibitory activity value): 5 µg/mL
Heymann-Type Nephritis; Before Administration, 3 mg/body i.p. group, average of 3 rats (control 129)
  Proteinuria Level, Average: 123 mg/day
Heymann-Type Nephritis; Before Administration, 3 mg/body i.p. group
  Proteinuria Level: 117 mg/day and 129 mg/day and 123 mg/day
Heymann-Type Nephritis; Day 1, 3 mg/body i.p. once a day for 7 days, average of 3 rats (control 116)
  Proteinuria Level, Average: 112 mg/day
Heymann-Type Nephritis; Day 1, 3 mg/body i.p. once a day for 7 days
  Proteinuria Level: 89 mg/day and 127 mg/day and 119 mg/day
Heymann-Type Nephritis; Day 4, 3 mg/body i.p. once a day for 7 days, average of 3 rats (control 131)
  Proteinuria Level, Average: 58 mg/day
Heymann-Type Nephritis; Day 4, 3 mg/body i.p. once a day for 7 days
  Proteinuria Level: 42 mg/day and 75 mg/day and 58 mg/day
Heymann-Type Nephritis; Day 7, 3 mg/body i.p. once a day for 7 days, average of 3 rats (control 122)
  Proteinuria Level, Average: 28 mg/day
Heymann-Type Nephritis; Day 7, 3 mg/body i.p. once a day for 7 days
  Proteinuria Level: 27 mg/day and 39 mg/day and 18 mg/day
Heymann-Type Nephritis; Day 14, 3 mg/body i.p. once a day for 7 days, average of 3 rats (control 119)
  Proteinuria Level, Average: 3 mg/day
Heymann-Type Nephritis; Day 14, 3 mg/body i.p. once a day for 7 days
  Proteinuria Level: 3 mg/day and 17 mg/day and 9 mg/day
Heymann-Type Nephritis; Day 21, 3 mg/body i.p. once a day for 7 days, average of 3 rats (control 109)
  Proteinuria Level, Average: 9 mg/day
Heymann-Type Nephritis; Day 21, 3 mg/body i.p. once a day for 7 days
  Proteinuria Level: 8 mg/day and 13 mg/day and 7 mg/day
[1]; Day 1, average of 3 rats (control 15)
  Proteinuria Level, Average: 3.2 mg/day
[1]; Day 1
  Proteinuria Level: 1.9 mg/day and 5.3 mg/day and 2.5 mg/day
[1]; Day 4, average of 3 rats (control 20)
  Proteinuria Level, Average: 2.3 mg/day
[1]; Day 4
  Proteinuria Level: 1.2 mg/day and 2.9 mg/day and 2.7 mg/day
[1]; Day 7, average of 3 rats (control 23)
  Proteinuria Level, Average: 1.3 mg/day
[1]; Day 7
  Proteinuria Level: 0.9 mg/day and 1.8 mg/day and 1.1 mg/day
[1]; Day 10, average of 3 rats (control 33)
  Proteinuria Level, Average: 9.7 mg/day
[1]; Day 10
  Proteinuria Level: 7 mg/day and 13 mg/day and 9 mg/day
mice
  Acute Toxicity LD50: Above 300 mg/kg

## CC1(C)[C@@H](O[C@H]2O[C@H](C(=O)O)[C@@H](O)[C@H](O)[C@H]2O[C@@H]2O[C@H](C(=O)O)[C@@H](O)[C@H](O)[C@H]2O)CC[C@]2(C)[C@H]3C(=O)C=C4[C@@H]5C[C@@](C)(C(=O)O)CC[C@]5(C)CC[C@@]4(C)[C@]3(C)CC[C@@H]12 [Compound B, Glycyrrhizin]
urokinase
  inhibitory activity against urokinase: inhibitory activity
complement
  Anticomplementary Activity (50% hemolysis inhibitory activity value): 500-1,000 γ/ml
thrombin
  inhibitory activity against thrombin: inhibitory activity
Kallikrein
  inhibitory activity against Kallikrein: inhibitory activity
plasmin
  inhibitory activity against plasmin: inhibitory activity
complements
  inhibitory activity against complements: inhibitory activity
[2]
  LD50: > 300 mg/kg

## Cc1ccc(C(=O)Nc2ccc(S(=O)(=O)O)c3cc(S(=O)(=O)O)cc(S(=O)(=O)O)c23)cc1NC(=O)c1cccc(NC(=O)Nc2cccc(C(=O)Nc3cc(C(=O)Nc4ccc(S(=O)(=O)O)c5cc(S(=O)(=O)O)cc(S(=O)(=O)O)c45)ccc3C)c2)c1 [Suramin Sodium]
[3]
  use in the treatment of hereditary angioneurotic edema: used with success

## NCCCCCC(=O)O [epsilon-aminocaproic acid]
[3]
  use in the treatment of hereditary angioneurotic edema: used with success

## NC[C@H]1CC[C@H](C(=O)O)CC1 [tranexamic acid]
[3]
  use in the treatment of hereditary angioneurotic edema: used with success
